Key:
DYRK1A protein = DYRK1A protein levels in primary hippocampal neurons isolated from Ts2Cje mice; type: cell-based, mouse; details: 1, 5, 10 μM for 24 hours, vs untreated Ts2Cje
Experimental: For Western blots, 20 μg of proteins from the hippocampus of mice belonging to the four experimental groups were separated by 4-15% SDS-PAGE Criterion™ TGX (Tris-Glyicine eXtended) Stain-Free™ (Bio-rad, Hercules, CAUSE). This type of gel allows a rapid acquisition of the protein run in the ultraviolet (UV) by Chemidoc™ MP imaging systems (Bio-rad, Hercules, CA, USA). Therefore, the gel, once the image has been acquired, represents the total of the loaded proteins (Total Load), which will then be used to normalize the specific proteins to be examined. After electrophoresis and gel imaging, proteins are transferred via the semi-dry TransBlot Turbo apparatus (Bio-Rad Laboratories) onto nitrocellulose membranes (Bio-Rad, Hercules, CA, USA). Nitrocellulose membranes are blocked with 3% bovine serum albumin (BSA) in a solution of Tween 20-TBS and incubated overnight at 4° C. using specific primary antibodies: p(T216)-GSK3B (1:1000, Santa Cruz, #sc-135653), p(S9)-GSK3β (1:1000, Cell Signaling, #5558S), GSK3β (1:1000 Abcam, #93926) and DYRK1A (1:1000, Cell Signaling, #8765S), MAPK44/42 (1:1000, Cell Signaling, #9102), p(Thr202/Tyr204)-MAPK44/42 (1 1000, Cell Signaling, #9101), Akt (1:2000, Bio-Rad, # vma00253K), p(S473) Akt (1:1000, Cell Signaling, #4060S). After three washes with a T-TBS buffer solution, membranes were incubated for 1 hour at room temperature with the secondary antibodies. Secondary antibodies with peroxidase activity are anti-mouse or anti-rabbit (1:5000, Bio-rad, Hercules, CA, USA). Membranes were developed using Clarity Enhanced Chemiluminescence (ECL), a chemiluminescent substrate (Bio-rad, Hercules, CA, USA) and acquired with Chemidoc Mp (Bio-rad, Hercules, CA, USA). Finally, the results obtained were analyzed using the ImageLab program (Bio-rad, Hercules, CA, USA).
In order to isolate primary hippocampal neurons, hippocampi from Ts and euploid mice were mechanically dissociated in PBS (with Ca^2+ and Mg^2−) and centrifuged (3 minutes, 1100 rpm, 25° C.). […]

GSK3b protein = assay: GSK3b activation (pSer9/pTyr216 ratio) in primary hippocampal neurons isolated from Ts2Cje mice; type: cell-based, mouse; details: 1, 5, 10 μM for 24 hours
Experimental: For Western blots, 20 μg of proteins from the hippocampus of mice belonging to the four experimental groups were separated by 4-15% SDS-PAGE CriterionTM […] (Bio-rad, Hercules, CAUSE). […] Therefore, the gel, once the image has been acquired, represents the total of the loaded proteins (Total Load), which will then be used to normalize the specific proteins to be examined. After electrophoresis and gel imaging, proteins are transferred via the semi-dry TransBlot Turbo apparatus (Bio-Rad Laboratories) onto nitrocellulose membranes (Bio-Rad, Hercules, CA, USA). Nitrocellulose membranes are blocked with 3% bovine serum albumin (BSA) in a solution of Tween 20-TBS and incubated overnight at 4° C. using specific primary antibodies: p([…])-GSK3B (1:1000, Santa Cruz, #sc-135653), p(S9)-GSK3β (1:1000, Cell Signaling, #5558S), GSK3β (1:1000 Abcam, #93926) and DYRK1A (1:1000, Cell Signaling, #8765S), MAPK44/42 (1:1000, Cell Signaling, #9102), p[…])-MAPK44/42 (1 1000, Cell Signaling, #9101), Akt (1:2000, Bio-Rad, # vma00253K), p(S473) Akt (1:1000, Cell Signaling, #4060S). After three washes with a T-TBS buffer solution, membranes were incubated for 1 hour at room temperature with the secondary antibodies. Secondary antibodies with peroxidase activity are anti-mouse or anti-rabbit (1:5000, Bio-rad, Hercules, CA, USA). […] Finally, the results obtained were analyzed using the ImageLab program (Bio-rad, Hercules, CA, USA). […] In order to isolate primary hippocampal neurons, hippocampi from Ts and euploid mice were mechanically dissociated in PBS (with Ca^2+ and […]) and centrifuged (3 minutes, 1100 rpm, 25° C.). Subsequently, the pellet was resuspended in 0.25% trypsin solution and centrifuged further for 3 minutes at 1100 rpm at Tamb. At this point, the cell extract was resuspended in MEM 1 culture medium (Minimum Essential Medium complemented with fetal bovine serum (FBS-1%), L-glutamine 200 mM (1%), glucose 25 mM (1%), gentamicin 0.1 mg/ml) and centrifuged for 10 minutes, 1100 rpm at 25° C. […]

N[C@@H](CC(=O)N1CCn2c(nnc2C(F)(F)F)C1)Cc1cc(F)c(F)cc1F [sitagliptin, (R)-4-oxo-4-[3-(trifluoromethyl)-5,6-dihydro[1,2,4]triazole[4,3-a]pyrazin-7(8H)-yl]-1-(2,4,5-trifluorophenyl)butan-2-amine]
levels of the DYRK1A protein in Ts2Cje neurons (DYRK1A protein): significant reduction
activity of the GSK3B protein in Ts2Cje neurons (GSK3b protein): significant increase

— patent publication US12636284B2, “Compositions for use in the prevention and/or treatment of intellectual disability and neurodegenerative diseases in a subject with down syndrome” (UNIVERSITA' DEGLI STUDI DI ROMA “LA SAPIENZA”, priority 2021, dated 2026)
